Experimental data published in patent publication US20100168054A1, “Functionalized Beta 1,6 Glucosamine Disaccharides and Process for Their Preparation” (OM PHARMA, priority 2006, published 2010).

What was measured:
TLR2 and CD14 = target: T1, TLR2 and CD14 (Homo sapiens, UniProt O60603); assay: HEK-TLR2-CD14 IL-8 secretion; format: cell-based; settings: for IL-8 secretion, mean: 24 h; for activation of IL-8 secretion via TLR2 (in words): HEK-TLR2-CD14
T1 construct: expressed in transfected cells; host or cells: HEK (HEK-TLR2-CD14 cell line)
Source text: (§1) The HEK293 cell line was chosen for its null or low basal expression of the TLR genes. These cells enable efficient monitoring of TLR activity using ELISA analysis such as IL-8 titration or reporter-based systems that monitor TLR-induced NF-κB activation. HEK-TLR2 cells (Invivogen, Toulouse, France) are engineered HEK293 cells stably transfected with multiple genes from the TLR2 pathway that include TLR2 and genes participating in the recognition or involved in the signaling cascade. These cells secrete IL-8 after TLR2 stimulation. The experiments were performed according to manufacturers' instructions. Briefly, 2×10^4 cells/well (200 ul RPMI) are incubated at 37° C. during 3 days (5% CO2). The medium is removed, and 90 ul RPMi+5% FCS is added to the wells Then the agonists and controls are added (10 ul/well). The cells return to the incubator for 24 hours. The supernatants are collected and the IL-8 ELISA is performed according to manufacturer's instructions These preliminary results were confirmed in another cell line expressing concomitantly TLR2 and CD14. The procedure used is similar to the one described just above.

TLR4 = target: T2, TLR4 (Homo sapiens, UniProt O00206+Q9Y6Y9); assay: HEK-MD2-TLR4-CD14 IL-8 secretion; format: cell-based; settings: 24 h
T2 construct: expressed in transfected cells; host or cells: HEK293
Source text: as §1, with “instructions” for “instructions These preliminary results were confirmed in another cell line expressing concomitantly TLR2 and CD14. The procedure used is similar to the one described just above.”
HEK-MD2-TLR4-CD14 are highly sensitive to LPS. They were obtained by stable transfection of HEK293 cells with the TLR4, MD2 and CD14 genes and an NF-κB-inducible reporter system. They secrete IL-8. We used the same experimental procedure as for the other HEK cell lines described above.

murine macrophages = assay: Nitric oxide production by murine macrophages (Griess reaction); format: cell-based, C57/BL6 mice; settings: 22 h
Source text: Experimental assay of nitric oxide production by murine macrophages: Six-week old male C57/BL6 mice (six weeks old male, SPF quality, Charles Rivier, FR) were killed by CO2 inhalation. The hip, femur, and tibia from the posterior appendage were removed. The bone marrow was extracted from the lumen by injecting Dulbecco's Modified Eagle Medium (DH) through the bone after cutting both end portions. After washing, the stem cells were resuspended (40'000 cells/mL) in DH medium supplemented with 20% horse serum and 30% L929 cell supernatant. The cell suspension is incubated for 8 days in an incubator at 37° C. under 8% CO2 and moisture-saturated atmosphere. Macrophages are then detached with ice-cold PBS, washed and resuspended in DH medium supplemented with 5% fetal calf serum (FCS), amino acids and antibiotics (DHE medium). The cell density is adjusted to 700′000 cells/mL. Aqueous solutions of the products are serially diluted in DHE medium directly in microtiter plates. The products are tested in triplicates and each microtiter plate comprises a negative control composed of medium. The final volume in each well is […]. 100 μL of the cell suspension are added to the diluted products and the cells are incubated for 22 h in an incubator at 37° C., under 8% CO2 and a moisture-saturated atmosphere. At the end of the incubation period, 100 μL of supernatant are transferred to another microtiter plate and the nitrite concentration produced in each supernatant is determined by running a Griess reaction. 100 μL of Griess reagent (5 mg/mL of sulfanilamide+0.5 mg/mL of N-(1-naphtyl)ethylene-diamine hydrochloride) in 2.5% aqueous phosphoric acid, are added to each well. The microtiter plates are read with a spectrophotometer (SpectraMax Plus, Molecular Devices) at 562 nm against a reference at 690 nm. The nitrite concentration is proportional to nitric oxide content being formed. The nitrite content is determined based on a standard curve. The results are given as mean value±standard deviation and plotted as a dose response curve.

rat mast cells = assay: Histamine secretion (compound 48/80-stimulated); format: cell-based; settings: Rattus norvegicus, Mast cell, 2 min, compound 48/80 0.1 μg/ml, 37° C., read-out: IC50
Source text: Using an in vitro rat model of mast cell degranulation (proposed by the CRO CEREP, catalog number 2006: 771-c), we aimed to investigate whether the synthetic molecules OM-174-DP (compound 1b) OM-174-MP-PD (19), OM-174-MP-EP (33), OM-174-MP-CM (35c) and OM-174-MP-PR (17) would inhibit histamine secretion by compound 48/80-stimulated mastocytes. The protocol used is briefly summarized below:
The results are expressed as a percent of control specific activity ((measured specific activity/control specific activity)×100) obtained in the presence of the test compounds. The IC50 values (concentration causing a half-maximal inhibition of control specific activity) were determined by non-linear regression analysis of the inhibition curves generated with mean replicate values using Hill equation curve fitting (Y=D+[(A−D)/(1+(C/C50)nH)], where Y=specific activity, D=minimum specific activity, A=maximum specific activity, C=compound concentration, C50=IC50, and nH=slope factor). This analysis was performed using a software developed at Cerep (Hill software) and validated by comparison with data generated by the commercial software SigmaPlot® 4.0 for Windows® (© 1997 by SPSS Inc.).
In each experiment, the reference compound was tested concurrently with the test compounds in order to assess the assay suitability. It was tested at several concentrations (for IC50 value determination), and the data were compared with historical values determined at CEREP. The assay was rendered valid if the suitability criteria were met, in accordance with the corresponding Standard Operating Procedure.

T2 sequence (O00206 24-839): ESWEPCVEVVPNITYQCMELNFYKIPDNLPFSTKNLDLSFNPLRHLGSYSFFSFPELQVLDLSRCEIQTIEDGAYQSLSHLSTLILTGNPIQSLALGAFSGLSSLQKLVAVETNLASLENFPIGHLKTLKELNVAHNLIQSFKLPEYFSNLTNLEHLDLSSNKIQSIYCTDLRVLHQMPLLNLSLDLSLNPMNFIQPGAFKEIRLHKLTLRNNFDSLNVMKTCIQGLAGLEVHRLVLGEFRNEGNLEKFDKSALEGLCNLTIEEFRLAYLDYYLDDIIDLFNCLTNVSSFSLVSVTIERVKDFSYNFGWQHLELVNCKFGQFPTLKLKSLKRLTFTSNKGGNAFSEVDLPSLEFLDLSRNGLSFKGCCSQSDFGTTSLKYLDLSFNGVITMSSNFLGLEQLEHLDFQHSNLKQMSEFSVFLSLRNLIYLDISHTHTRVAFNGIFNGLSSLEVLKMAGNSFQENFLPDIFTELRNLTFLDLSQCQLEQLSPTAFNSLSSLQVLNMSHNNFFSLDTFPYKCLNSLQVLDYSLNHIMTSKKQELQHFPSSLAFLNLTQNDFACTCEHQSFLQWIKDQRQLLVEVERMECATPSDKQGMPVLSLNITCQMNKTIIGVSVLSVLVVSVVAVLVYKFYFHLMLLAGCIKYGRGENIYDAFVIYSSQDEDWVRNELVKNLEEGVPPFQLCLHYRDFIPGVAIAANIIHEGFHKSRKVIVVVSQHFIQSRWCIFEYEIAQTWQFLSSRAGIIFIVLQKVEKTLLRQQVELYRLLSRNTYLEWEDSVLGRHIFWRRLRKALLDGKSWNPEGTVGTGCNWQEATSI
T2 sequence (Q9Y6Y9 17-160 limits assumed): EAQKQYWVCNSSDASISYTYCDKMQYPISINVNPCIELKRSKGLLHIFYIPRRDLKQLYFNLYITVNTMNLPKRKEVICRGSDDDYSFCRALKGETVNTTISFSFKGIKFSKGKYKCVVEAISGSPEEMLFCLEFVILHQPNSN
T1 sequence (O60603 21-784): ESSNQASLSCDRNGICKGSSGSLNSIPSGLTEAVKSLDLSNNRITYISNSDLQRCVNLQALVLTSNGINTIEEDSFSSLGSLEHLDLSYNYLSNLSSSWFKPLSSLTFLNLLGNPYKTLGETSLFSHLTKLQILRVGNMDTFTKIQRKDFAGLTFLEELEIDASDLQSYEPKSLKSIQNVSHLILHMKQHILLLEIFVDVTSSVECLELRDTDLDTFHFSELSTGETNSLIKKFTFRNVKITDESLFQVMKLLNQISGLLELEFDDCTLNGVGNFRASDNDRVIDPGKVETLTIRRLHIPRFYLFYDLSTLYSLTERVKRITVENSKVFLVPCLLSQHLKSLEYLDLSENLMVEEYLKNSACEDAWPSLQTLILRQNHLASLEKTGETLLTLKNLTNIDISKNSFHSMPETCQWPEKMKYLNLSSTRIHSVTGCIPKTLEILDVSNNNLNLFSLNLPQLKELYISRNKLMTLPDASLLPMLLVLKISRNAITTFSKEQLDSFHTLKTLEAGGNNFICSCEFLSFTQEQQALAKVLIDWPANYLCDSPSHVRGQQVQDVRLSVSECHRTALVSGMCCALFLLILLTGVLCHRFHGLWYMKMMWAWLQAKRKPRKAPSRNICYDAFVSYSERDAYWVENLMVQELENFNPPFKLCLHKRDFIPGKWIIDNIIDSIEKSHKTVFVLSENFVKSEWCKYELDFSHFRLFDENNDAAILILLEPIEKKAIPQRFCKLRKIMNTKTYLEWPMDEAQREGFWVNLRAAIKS

| IL-8 secretion, mean (TLR2 and CD14; 14 ng/ml) | IL-8 secretion, mean (TLR2 and CD14; 41 ng/ml) | IL-8 secretion, mean (TLR2 and CD14; 124 ng/ml) | IL-8 secretion, mean (TLR2 and CD14; 370 ng/ml) | IL-8 secretion, mean (TLR2 and CD14; 1111 ng/ml) | IL-8 secretion, mean (TLR2 and CD14; 3333 ng/ml) | IL-8 secretion, mean (TLR2 and CD14; 10000 ng/ml) | IL-8 secretion, mean (TLR4; 14 ng/ml) | IL-8 secretion, mean (TLR4; 41 ng/ml) | IL-8 secretion, mean (TLR4; 124 ng/ml) | IL-8 secretion, mean (TLR4; 370 ng/ml) | IL-8 secretion, mean (TLR4; 1111 ng/ml) | IL-8 secretion, mean (TLR4; 3333 ng/ml) | IL-8 secretion, mean (TLR4; 10000 ng/ml) | activation of IL-8 secretion via TLR2 (in words) (TLR2 and CD14) | SMILES | nitric oxide production (in words), FIG. 25 (murine macrophages) | dose from which active (nitric oxide production) (murine macrophages) | IC50 (rat mast cells) |
| --- | --- | --- | --- | --- | --- | --- | --- | --- | --- | --- | --- | --- | --- | --- | --- | --- | --- | --- |
| 0.03 pg/mL | 0.00 pg/mL | 0.03 pg/mL | 0.01 pg/mL | 0.06 pg/mL | 0.13 pg/mL | 0.22 pg/mL | 1.75 pg/mL | 1.68 pg/mL | 1.62 pg/mL | 1.66 pg/mL | 1.60 pg/mL | 1.63 pg/mL | 1.90 pg/mL |  | CCCCCCCCCCCC(=O)O[C@H](CCCCCCCCCCC)CC(=O)N[C@H]1[C@H](OC[C@H]2O[C@H](O)[C@H](NC(=O)C[C@H](O)CCCCCCCCCCC)[C@@H](O)[C@@H]2O)O[C@H](CO)[C@@H](OP(=O)(O)O)[C@@H]1O [compound 16, 2-Deoxy-6-O-[2-deoxy-4-O-(dihydroxyphosphoryl)-2-[(R)-3-dodecanoyloxytetradecanoylamino]-β-D-glucopyranosy]-2-[(R)-3-hydroxytetradecanoylamino]-α-D-glucopyranose] | able to induce high levels of nitric oxide |  |  |
| 0.10 pg/mL | 0.03 pg/mL | 0.17 pg/mL | 0.19 pg/mL | 0.52 pg/mL | 1.49 pg/mL | 4.24 pg/mL | 1.83 pg/mL | 1.79 pg/mL | 1.65 pg/mL | 1.64 pg/mL | 1.58 pg/mL | 1.62 pg/mL | 1.78 pg/mL | able to activate IL-8 secretion via TLR2 | CCCCCCCCCCCC(=O)O[C@H](CCCCCCCCCCC)CC(=O)N[C@H]1[C@H](OC[C@H]2O[C@H](OCCOP(=O)(O)O)[C@H](NC(=O)C[C@H](O)CCCCCCCCCCC)[C@@H](O)[C@@H]2O)O[C@H](CO)[C@@H](OP(=O)(O)O)[C@@H]1O [compound 33, 2-(Phosphonooxy)ethyl-2-Deoxy-6-O-[2-deoxy-4-O-(dihydroxyphosphoryl)-2-[(R)-3-dodecanoyloxytetradecanoylamino]-β-D-glucopyranosyl]-2-[(R)-3-hydroxytetradecanoylamino]-α-D-glucopyranoside] |  |  | 210 nM |
| 0.13 pg/mL | 0.14 pg/mL | 0.20 pg/mL | 0.22 pg/mL | 0.40 pg/mL | 1.06 pg/mL | 3.59 pg/mL | 1.88 pg/mL | 1.97 pg/mL | 1.93 pg/mL | 1.85 pg/mL | 1.94 pg/mL | 1.89 pg/mL | 1.70 pg/mL | able to activate IL-8 secretion via TLR2 | CCCCCCCCCCCC(=O)O[C@H](CCCCCCCCCCC)CC(=O)N[C@H]1[C@H](OC[C@H]2O[C@H](OCCC)[C@H](NC(=O)C[C@H](O)CCCCCCCCCCC)[C@@H](O)[C@@H]2O)O[C@H](CO)[C@@H](OP(=O)(O)O)[C@@H]1O [compound 17, Propyl-2-Deoxy-6-O-[2-deoxy-4-O-(dihydroxyphosphoryl)-2-[(R)-3-dodecanoyloxytetradecanoylamino]-β-D-glucopyranosyl]-2-[(R)-3-hydroxytetradecanoylamino]-α-D-glucopyranoside] | able to induce high levels of nitric oxide |  | 1600 nM |

Further lines, the molecule ahead of its results:

| SMILES | IL-8 secretion, mean (TLR2 and CD14; 14 ng/ml) | IL-8 secretion, mean (TLR2 and CD14; 41 ng/ml) | IL-8 secretion, mean (TLR2 and CD14; 124 ng/ml) | IL-8 secretion, mean (TLR2 and CD14; 370 ng/ml) | IL-8 secretion, mean (TLR2 and CD14; 1111 ng/ml) | IL-8 secretion, mean (TLR2 and CD14; 3333 ng/ml) | IL-8 secretion, mean (TLR2 and CD14; 10000 ng/ml) | IL-8 secretion, mean (TLR4; 14 ng/ml) | IL-8 secretion, mean (TLR4; 41 ng/ml) | IL-8 secretion, mean (TLR4; 124 ng/ml) | IL-8 secretion, mean (TLR4; 370 ng/ml) | IL-8 secretion, mean (TLR4; 1111 ng/ml) | IL-8 secretion, mean (TLR4; 3333 ng/ml) | IL-8 secretion, mean (TLR4; 10000 ng/ml) | activation of IL-8 secretion via TLR2 (in words) (TLR2 and CD14) | nitric oxide production (in words), FIG. 25 (murine macrophages) | dose from which active (nitric oxide production) (murine macrophages) | IC50 (rat mast cells) |
| --- | --- | --- | --- | --- | --- | --- | --- | --- | --- | --- | --- | --- | --- | --- | --- | --- | --- | --- |
| CCCCCCCCCCCC(=O)O[C@H](CCCCCCCCCCC)CC(=O)N[C@H]1[C@H](OC[C@H]2O[C@H](OCC(O)CO)[C@H](NC(=O)C[C@H](O)CCCCCCCCCCC)[C@@H](O)[C@@H]2O)O[C@H](CO)[C@@H](OP(=O)(O)O)[C@@H]1O (stereo partly drawn) [compound 19, 2,3-Dihydroxypropyl-2-Deoxy-6-O-[2-deoxy-4-O-(dihydroxyphosphoryl)-2-[(R)-3-dodecanoyloxytetradecanoylamino]-β-D-glucopyranosyl]-2-[(R)-3-hydroxytetradecanoylamino]-α-D-glucopyranoside] | 0.05 pg/mL | 0.03 pg/mL | 0.11 pg/mL | 0.10 pg/mL | 0.17 pg/mL | 0.26 pg/mL | 0.65 pg/mL | 1.69 pg/mL | 1.64 pg/mL | 1.56 pg/mL | 1.67 pg/mL | 1.73 pg/mL | 1.88 pg/mL | 1.96 pg/mL |  | able to induce high levels of nitric oxide | ≥ 0.01 µg/mL | 160 nM |
| CCCCCCCCCCCC(=O)O[C@H](CCCCCCCCCCC)CC(=O)NC1C(OCC2OC(OP(=O)(O)O)C(NC(=O)C[C@H](O)CCCCCCCCCCC)C(O)C2O)OC(CO)C(OP(=O)(O)O)C1O (stereo partly drawn) [compound 1b, 2-Deoxy-6-O-[2-deoxy-4-O-(dihydroxyphosphoryl)-2-[(R)-3-dodecanoyloxytetradecanoylamino]-β-D-glucopyranosyl]-2-[(R)-3-hydroxytetradecanoylamino]-α-D-glucopyranosyl dihydrogenophosphate] |  |  |  |  |  |  |  |  |  |  |  |  |  |  |  |  |  | 86 nM |
